In ChEMBL document CHEMBL4303087, “Broad anti-coronaviral activity of FDA approved drugs against SARS-CoV-2 in vitro and SARS-CoV in vivo” (2020):
“And” between values parts separate entries of the source, which are not always exact repeats. Equal values may be shown once. Where a name gives a salt, the structure may show the parent alone. The source made the active and inactive calls. The rule behind the calls is not given here.

Experiments:
SARS-CoV-2 [1] = test: microbe, parasite or virus in culture; type: functional, organism-based, Chlorocebus sabaeus, Vero C1008
SARS-CoV = test: Reduction of SARS spike protein-mediated cell fusion using BlaM pseudovirus assay system in BSC1 cells; type: functional, Chlorocebus aethiops, BSC-1
SARS-CoV-2 [2] = test: microbe, parasite or virus in culture; type: functional, organism-based, Chlorocebus sabaeus, Vero C1008; remark: listed apart in the source
SARS-CoV-2 [3] = test: Reduction of viral mRNA (RdRp and N) in SARS-CoV-2 infected Vero E6 cells (at MOI 0.1) after 24 hrs; type: functional, organism-based; settings: Chlorocebus sabaeus; Vero C1008
Vero C1008 = settings: chlorocebus sabaeus, vero c1008, 72 h
in vitro [4] = settings: monkey, Vero E6 cells, Selectivity index
in vitro [5] = settings: monkey, Vero E6 cells, Selectivity index; remark: listed apart in the source
SARS-CoV-2 [6] = test: Reduction of SARS-CoV-2 infection by time of addition assay, with 50uM hydroxychloroquine administered at -2hrs, 0 hrs and 2hrs post-infection; type: functional, organism-based; settings: Chlorocebus sabaeus, Vero C1008
[7] = Severe acute respiratory syndrome coronavirus 2, Vero C1008, 72 h

SMILES | IC50 (SARS-CoV-2 [1]; [7]) [µM] | IC50 (SARS-CoV-2 [2]; [7]) [µM] | CC50 (Vero C1008) [µM] | selectivity ratio (in vitro [4]) | selectivity ratio (in vitro [5]) | also measured
CCN(CC)CCCC(C)Nc1ccnc2cc(Cl)ccc12.O=P(O)(O)O.O=P(O)(O)O (stereo not drawn) [CHLOROQUINE PHOSPHATE] | 42 | 46.8 |  |  |  | Inhibition (SARS-CoV): >90%; Activity (SARS-CoV-2 [3]): Active
Cc1ccc(NC(=O)c2ccc(CN3CCN(C)CC3)cc2)cc1Nc1nccc(-c2cccnc2)n1 [IMATINIB MESYLATE] |  |  | > 30.9 |  |  | 
CN(C)CCOc1ccc(/C(=C(/CCCl)c2ccccc2)c2ccccc2)cc1 [TOREMIFENE CITRATE] | 4.77 | 11.3 | 20.5 | 1.81 | 4.3 | 
CCN(CCO)CCCC(C)Nc1ccnc2cc(Cl)ccc12 (stereo not drawn) [HYDROXYCHLOROQUINE SULFATE] | 9.21 | 11.2 | > 50 | > 4.48 | > 5.43 | Activity (SARS-CoV-2 [6]; time 0.0 hr): Active; Activity (SARS-CoV-2 [6]; time 2.0 hr): Active; Activity (SARS-CoV-2 [6]; time -2.0 hr): Active; Activity (SARS-CoV-2 [3]): Active
Nc1ccn([C@@H]2O[C@H](CO)[C@@H](O)C2(F)F)c(=O)n1 [GEMCITABINE HYDROCHLORIDE] |  |  | 23.2 |  |  | 
CC(C)N1CCN(c2ccc(OCC3COC(Cn4cncn4)(c4ccc(Cl)cc4Cl)O3)cc2)CC1 (stereo not drawn) [TERCONAZOLE] | 11.9 | 16.1 | 41.5 | 2.57 | 3.48 | 
CC[C@H]1CN2CCc3cc(OC)c(OC)cc3[C@@H]2C[C@@H]1C[C@H]1NCCc2cc(OC)c(OC)cc21 [EMETINE DIHYDROCHLORIDE HYDRATE] |  |  | < 0.39 |  |  | 
CC/C(=C(\c1ccccc1)c1ccc(OCCN(C)C)cc1)c1ccccc1 [TAMOXIFEN CITRATE] |  |  | 38 |  |  | 
O=C1NCN(c2ccccc2)C12CCN(CCCC(c1ccc(F)cc1)c1ccc(F)cc1)CC2 | 3.16 | 5.32 | 30.3 | 5.71 | 9.61 | 
CCN(CC)CCOc1ccc(C(O)(Cc2ccc(Cl)cc2)c2ccc(C)cc2)cc1 (stereo not drawn) [TRIPARANOL] | 4.68 | 6.41 | 21.2 | 3.31 | 4.53 | 
CCN(CC)Cc1cc(Nc2ccnc3cc(Cl)ccc23)ccc1O [AMODIAQUINE HYDROCHLORIDE] | 2.59 | 4.94 |  | 6.97 | 13.3 | IC50 (SARS-CoV-2 [1]; vero c1008): 2.36 µM; IC50 (SARS-CoV-2 [2]; vero c1008): 5.64 µM; CC50 (Vero C1008; 72 h): 34.4 µM and > 38.6 µM
CC(CN1c2ccccc2Sc2ccccc21)N(C)C (stereo not drawn) [PROMETHAZINE HYDROCHLORIDE] | 9.21 | 10.4 | > 42.6 | > 4.08 | > 4.62 | 
CN(C)CCCN1c2ccccc2Sc2ccc(Cl)cc21.Cl [CHLORPROMAZINE HYDROCHLORIDE] | 3.14 | 4.03 | 11.9 |  |  | Inhibition (SARS-CoV): >90%
OC(c1cc(C(F)(F)F)nc2c(C(F)(F)F)cccc12)C1CCCCN1 (stereo not drawn) [MEFLOQUINE HYDROCHLORIDE] | 7.11 | 8.06 | 18.5 | 2.3 | 2.61 | 
CCSc1ccc2c(c1)N(CCCN1CCN(C)CC1)c1ccccc1S2 [THIETHYLPERAZINE MALEATE] | 7.09 | 8.02 | 18.4 | 2.29 | 2.59 | 
